From patent publication US8242113B2, “Oxazolidinone derivatives with cyclic amidoxime or cyclic amidrazone pharmaceutical compositions thereof” (Legochem Biosciences, Inc., priority 2008, dated 2012)
Converted amounts (≈) assume the structure as drawn.

Tests used:
[1] = tested on: methicillin-resistant Staphylococcus aureus (MRSA); assay: In vitro antibacterial activity, broth microdilution (MIC90); settings: read-out: Antibacterial activity MIC90, MRSA
From the text: (§1) MIC90 measurement was made according to the broth microdilution method based on the CLSI document [Clinical and Laboratory Standards Institute Document.
(§2) The test compounds in DMSO solution were further diluted 20-fold with sterile distilled water.

[2] = tested on: linezolid- and vancomycin-resistant Enterococcus faecalis (LVRE); assay: as above; settings: read-out: Antibacterial activity MIC90, LVRE
From the text: as §1, §2

Structure (SMILES) | MIC90 [1] [µg/mL] | MIC [2] [µg/mL]
O=CN1CCN(c2ccc(N3C[C@H](CNC(=O)C(Cl)Cl)OC3=O)cc2F)C=N1 [Compound 51] | 1 (≈ 2.31 µM) | 4 (≈ 9.25 µM)
O=CN1CCN(c2ccc(N3C[C@H](CNC(=O)c4ccno4)OC3=O)cc2F)C=N1 [Compound 52] | 2 (≈ 4.8 µM) | 16 (≈ 38.4 µM)
CCOC(=S)NC[C@H]1CN(c2ccc(N3C=NN(C=O)CC3)c(F)c2)C(=O)O1 [Compound 54] | 0.5 (≈ 1.22 µM) | 4 (≈ 9.77 µM)
CC(C)OC(=S)NC[C@H]1CN(c2ccc(N3C=NN(C=O)CC3)c(F)c2)C(=O)O1 [Compound 55] | 2 (≈ 4.72 µM) | 8 (≈ 18.9 µM)
CCNC(=S)NC[C@H]1CN(c2ccc(N3C=NN(C=O)CC3)c(F)c2)C(=O)O1 [Compound 56] | 4 (≈ 9.79 µM) | 8 (≈ 19.6 µM)
COC(=S)NC[C@H]1CN(c2ccc(N3C=NOCC3)c(F)c2)C(=O)O1 [Compound 57] | 0.25 (≈ 0.679 µM) | 2 (≈ 5.43 µM)
COC(=S)NC[C@H]1CN(c2ccc(N3C=NNCC3)c(F)c2)C(=O)O1 [Compound 58] | 0.25 (≈ 0.68 µM) | 4 (≈ 10.9 µM)
COC(=S)NC[C@H]1CN(c2ccc(N3C=NN(C(=O)COC(C)=O)CC3)c(F)c2)C(=O)O1 [Compound 59] | 0.5 (≈ 1.07 µM) | 2 (≈ 4.28 µM)
COC(=S)NC[C@H]1CN(c2ccc(N3C=NN(C)CC3)c(F)c2)C(=O)O1 [Compound 60] | 0.25 (≈ 0.655 µM) | 2 (≈ 5.24 µM)
CCN1CCN(c2ccc(N3C[C@H](CNC(=S)OC)OC3=O)cc2F)C=N1 [Compound 61] | 0.5 (≈ 1.26 µM) | 4 (≈ 10.1 µM)
C=CCN1CCN(c2ccc(N3C[C@H](CNC(=S)OC)OC3=O)cc2F)C=N1 [Compound 62] | 0.0625 (≈ 0.153 µM) | 2 (≈ 4.91 µM)
C#CCN1CCN(c2ccc(N3C[C@H](CNC(=S)OC)OC3=O)cc2F)C=N1 [Compound 63] | 0.5 (≈ 1.23 µM) | 4 (≈ 9.87 µM)
CC#CCN1CCN(c2ccc(N3C[C@H](CNC(=S)OC)OC3=O)cc2F)C=N1 [Compound 64] | 2 (≈ 4.77 µM) | 8 (≈ 19.1 µM)
COC(=S)NC[C@H]1CN(c2ccc(N3C=NN(CC#N)CC3)c(F)c2)C(=O)O1 [Compound 65] | 0.5 (≈ 1.23 µM) | 4 (≈ 9.84 µM)
C=C(Cl)CN1CCN(c2ccc(N3C[C@H](CNC(=S)OC)OC3=O)cc2F)C=N1 [Compound 66] | 0.5 (≈ 1.13 µM) | 4 (≈ 9.05 µM)
COC(=S)NC[C@H]1CN(c2ccc(N3C=NN(CC4CC4)CC3)c(F)c2)C(=O)O1 [Compound 67] | 0.5 (≈ 1.19 µM) | 4 (≈ 9.49 µM)
COC(=S)NC[C@H]1CN(c2ccc(N3C=NN(C4CCC4)CC3)c(F)c2)C(=O)O1 [Compound 68] | 0.25 (≈ 0.593 µM) | 2 (≈ 4.74 µM)
CCOC(=O)CN1CCN(c2ccc(N3C[C@H](CNC(=S)OC)OC3=O)cc2F)C=N1 [Compound 69] | 2 (≈ 4.41 µM) | 8 (≈ 17.6 µM)
COC(=S)NC[C@H]1CN(c2ccc(N3C=NN(CCO)CC3)c(F)c2)C(=O)O1 [Compound 70] | 1 (≈ 2.43 µM) | 4 (≈ 9.72 µM)
COC(=S)NC[C@H]1CN(c2ccc(N3C=NN(CCOC(C)=O)CC3)c(F)c2)C(=O)O1 [Compound 71] | 0.5 (≈ 1.1 µM) | 4 (≈ 8.82 µM)
COC(=S)NC[C@H]1CN(c2ccc(N3C=NN(C(=S)OC)CC3)c(F)c2)C(=O)O1 [Compound 72] | 0.5 (≈ 1.13 µM) | 2 (≈ 4.53 µM)
CC(=S)NC[C@H]1CN(c2ccc(N3C=NN(C=O)CC3)c(F)c2)C(=O)O1 [Compound 73] | 0.0625 (≈ 0.165 µM) | 2 (≈ 5.27 µM)
CC(=S)NC[C@H]1CN(c2ccc(N3C=NNCC3)c(F)c2)C(=O)O1 [Compound 74] | 0.25 (≈ 0.711 µM) | 2 (≈ 5.69 µM)
CC(=S)NC[C@H]1CN(c2ccc(N3C=NN(CC#N)CC3)c(F)c2)C(=O)O1 [Compound 75] | 0.25 (≈ 0.64 µM) | 2 (≈ 5.12 µM)
CC(=S)NC[C@H]1CN(c2ccc(N3C=NN(C(=O)CO)CC3)c(F)c2)C(=O)O1 [Compound 76] | 0.5 (≈ 1.22 µM) | 2 (≈ 4.88 µM)
O=CN1CCN(c2ccc(N3C[C@H](CNC(=S)C(F)F)OC3=O)cc2F)C=N1 [Compound 77] | 0.5 (≈ 1.2 µM) | 4 (≈ 9.63 µM)

Structure (SMILES) | MIC90 [1] [µg/mL] | MIC [2] [µg/mL]
C#CCN1CCN(c2ccc(N3C[C@H](CNC(=S)C(F)F)OC3=O)cc2F)C=N1 [Compound 78] | 0.5 (≈ 1.18 µM) | 4 (≈ 9.4 µM)
O=CN1CCN(c2ccc(N3C[C@H](COc4ccon4)OC3=O)cc2F)C=N1 [Compound 79] | 8 (≈ 20.5 µM) | > 64
O=CN1CCN(c2ccc(N3C[C@H](CNc4nccs4)OC3=O)cc2F)C=N1 [Compound 80] | 2 (≈ 4.95 µM) | 16 (≈ 39.6 µM)
O=CN1CCN(c2ccc(N3C[C@H](Cn4ccnn4)OC3=O)cc2F)C=N1 [Compound 81] | 1 (≈ 2.68 µM) | 16 (≈ 42.9 µM)
O=C1O[C@@H](Cn2ccnn2)CN1c1ccc(N2C=NNCC2)c(F)c1 [Compound 82] | 2 (≈ 5.79 µM) | 32 (≈ 92.7 µM)
C#CCN1CCN(c2ccc(N3C[C@H](Cn4ccnn4)OC3=O)cc2F)C=N1 [Compound 84] | 0.5 (≈ 1.3 µM) | 16 (≈ 41.7 µM)
O=CN1CCN(c2ccc(N3C[C@H](CNc4ccon4)OC3=O)cc2F)C=N1 [Compound 85] | 0.5 (≈ 1.29 µM) | 16 (≈ 41.2 µM)
O=C1O[C@@H](CNc2ccon2)CN1c1ccc(N2C=NNCC2)c(F)c1 [Compound 86] | 0.5 (≈ 1.39 µM) | 8 (≈ 22.2 µM)
O=C(CO)N1CCN(c2ccc(N3C[C@H](CNc4ccon4)OC3=O)cc2F)C=N1 [Compound 87] | 0.5 (≈ 1.2 µM) | 8 (≈ 19.1 µM)
CC(=O)OCC(=O)N1CCN(c2ccc(N3C[C@H](CNc4ccon4)OC3=O)cc2F)C=N1 [Compound 88] | 0.5 (≈ 1.09 µM) | 8 (≈ 17.4 µM)
CCN1CCN(c2ccc(N3C[C@H](CNc4ccon4)OC3=O)cc2F)C=N1 [Compound 90] | 2 (≈ 5.15 µM) | 8 (≈ 20.6 µM)
C#CCN1CCN(c2ccc(N3C[C@H](CNc4ccon4)OC3=O)cc2F)C=N1 [Compound 91] | 0.5 (≈ 1.26 µM) | 8 (≈ 20.1 µM)
O=CN1CCN(c2ccc(N3C[C@H](CO)OC3=O)cc2F)C=N1 [Compound 92] | 1 (≈ 3.1 µM) | 64 (≈ 199 µM)
O=C1O[C@@H](CO)CN1c1ccc(N2C=NNCC2)c(F)c1 [Compound 93] | 1 (≈ 3.4 µM) | 32 (≈ 109 µM)
CC(=O)NC[C@H]1CN(c2ccc(N3C=NN(C=O)CC3)cc2)C(=O)O1 [Compound 95] | 1 (≈ 2.9 µM) | 16 (≈ 46.3 µM)
CC(=O)NC[C@H]1CN(c2ccc(N3C=NN(C)CC3)cc2)C(=O)O1 [Compound 96] | 2 (≈ 6.04 µM) | 16 (≈ 48.3 µM)
COC(=S)NC[C@H]1CN(c2ccc(N3C=NN(C=O)CC3)cc2)C(=O)O1 [Compound 97] | 0.5 (≈ 1.32 µM) | 8 (≈ 21.2 µM)
COC(=S)NC[C@H]1CN(c2ccc(N3C=NN(C)CC3)cc2)C(=O)O1 [Compound 98] | 1 (≈ 2.75 µM) | 16 (≈ 44 µM)
O=CN1CCN(c2ccc(N3C[C@H](Cn4ccnn4)OC3=O)cc2)C=N1 [Compound 99] | 2 (≈ 5.63 µM) | 32 (≈ 90.1 µM)
O=CN1CCN(c2ccc(N3C[C@H](CNc4ccon4)OC3=O)cc2)C=N1 [Compound 100] | 0.5 (≈ 1.35 µM) | 32 (≈ 86.4 µM)
CN1CCN(c2ccc(N3C[C@H](CNc4ccon4)OC3=O)cc2)C=N1 [Compound 101] | 1 (≈ 2.81 µM) | 32 (≈ 89.8 µM)
O=CN1CCN(c2c(F)cc(N3C[C@H](Cn4ccnn4)OC3=O)cc2F)C=N1 [Compound 103] | 0.25 (≈ 0.639 µM) | 16 (≈ 40.9 µM)
CN1CCN(c2c(F)cc(N3C[C@H](Cn4ccnn4)OC3=O)cc2F)C=N1 [Compound 104] | 2 (≈ 5.3 µM) | 32 (≈ 84.8 µM)
O=CN1CCN(c2c(F)cc(N3C[C@H](CNc4ccon4)OC3=O)cc2F)C=N1 [Compound 105] | 0.5 (≈ 1.23 µM) | 16 (≈ 39.4 µM)
CN1CCN(c2c(F)cc(N3C[C@H](CNc4ccon4)OC3=O)cc2F)C=N1 [Compound 106] | 0.5 (≈ 1.27 µM) | 16 (≈ 40.8 µM)
